Experimental data published in the supplement of paper PMC10307832.

Columns and labels:
Experiment in all cases: relative viability (nuclei count vs DMSO), 5 days (fraction); higher = more cells survive
[1] = compound: C1=CC2=C(C=C(C(=C2N=C1)O)N=NC3=CC4=C(C=C3)C=C(C=C4)S(=O)(=O)O)S(=O)(=O)O + Cc1nc(NC(=O)N2CCC[C@H]2C(N)=O)sc1-c1ccnc(C(C)(C)C(F)(F)F)c1 [Alpelisib] (partner 2 µM)
How it was run: (§1)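 Relative viability divides the nuclei count in treated wells by that in vehicle wells. Lung cancer cell lines were seeded in 1536-well plates, dosed by pin tool the next day, and fixed and stained after 5 days in one step with final 0.05% Triton X-100, 1% formaldehyde and 1 ug/ml Hoechst. Dosing was a single drug or a fixed anchor-drug dose plus five library-drug doses (not always all listed) in √10 steps, and values are medians of duplicate plates imaged at 4×.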

[2] = compound: C1=CC2=C(C=C(C(=C2N=C1)O)N=NC3=CC4=C(C=C3)C=C(C=C4)S(=O)(=O)O)S(=O)(=O)O + O=C(CCCCCCC(=O)Nc1ccccc1)NO [Vorinostat] (partner 1 µM)
How it was run: as §1

AT-7519 + Linsitinib = compound: O=C(NC1CCNCC1)c1n[nH]cc1NC(=O)c1c(Cl)cccc1Cl [AT-7519] + C[C@]1(O)C[C@@H](c2nc(-c3ccc4ccc(-c5ccccc5)nc4c3)c3c(N)nccn32)C1 [Linsitinib] (partner 1 µM)
How it was run: as §1

AT-7519 + Dasatinib = compound: O=C(NC1CCNCC1)c1n[nH]cc1NC(=O)c1c(Cl)cccc1Cl [AT-7519] + Cc1nc(Nc2ncc(C(=O)Nc3c(C)cccc3Cl)s2)cc(N2CCN(CCO)CC2)n1 [Dasatinib] (partner 0.075 µM)
How it was run: as §1

UMC-11
relative viability ([1]; first compound 0.08 µM): 1.12
relative viability ([1]; first compound 0.253 µM): 0.954
relative viability ([1]; first compound 0.8 µM): 0.918
relative viability ([1]; first compound 2.53 µM): 0.88
relative viability ([1]; first compound 8 µM): 0.824
relative viability ([2]; first compound 0.08 µM): 0.462
relative viability ([2]; first compound 0.253 µM): 0.367
relative viability ([2]; first compound 0.8 µM): 0.475
relative viability ([2]; first compound 2.53 µM): 0.403
relative viability ([2]; first compound 8 µM): 0.392
relative viability (AT-7519 + Linsitinib; first compound 0.01 µM): 1.17
relative viability (AT-7519 + Linsitinib; first compound 0.03162 µM): 0.89
relative viability (AT-7519 + Linsitinib; first compound 0.3162 µM): 0.767
relative viability (AT-7519 + Linsitinib; first compound 1 µM): 0.344
relative viability (AT-7519 + Dasatinib; first compound 0.01 µM): 0.413
relative viability (AT-7519 + Dasatinib; first compound 0.03162 µM): 0.482
relative viability (AT-7519 + Dasatinib; first compound 0.3162 µM): 0.297
relative viability (AT-7519 + Dasatinib; first compound 1 µM): 0.238
